# “Also recorded” adds a separate entry of the source.
# What was measured:
# tumour cells UOK-126 = assay: Cell proliferation of UOK-126 tumour cells (cell count and BrdU incorporation); assay type: cell-based, human; details: different concentrations, medium without serum, 48 hrs
# Experimental: (§1) The cells were cultured in plates with 24 wells (1 ml per well) and in plates with 96 well (100 μl per well) at the rate of 10,000 to 30,000 C/ml. The cells were cultivated in the medium with serum described above. For the assays with the RPTH1 antagonists, after 24 hrs of culture, the medium was changed for a medium without serum containing 0.1% BSA (bovine serum albumin, Sigma) and the antibiotics. This manipulation facilitates cultivation of the cells in the absence of the factors present in the serum and facilitates assessment of the influence of the antagonist on cell proliferation. […]
# (§2) The cell proliferation was determined by two means, on the one hand by counting the cells (manual counting) using plates with 24 wells and on the other hand by measuring the incorporation of 5-bromo-2′-deoxyuridine (BrdU) using plates with 96 wells.
# (§3) The culture medium is removed by suction and an adequate volume of trypsin-EDTA (Sigma) is added. […] The cells are then recovered and manually counted with a counting cell placed under an optic microscope. […]
# (§4) For the experiments in vitro, the results of the manual counts are expressed as a percentage of the number of cells present in the control wells. […] The incorporations in response to the treatments are thus expressed as a percentage of the incorporations of positive controls taken as 100% incorporation. […]
# [1] = test system: 786-0 cells implanted subcutaneously; assay: Pilot protocol: subcutaneous 786-0 tumours in nude mouse, twice weekly injections; assay type: in vivo; details: for growth of implanted tumours: twice weekly i.p. and intratumoural injections, 25 days (antibody stopped after 18 days), versus control
# Experimental: (§5) The 786-0 cells were cultivated in the RPMI 1640 medium supplemented with serum until confluence. The cells were recuperated by trypsination and re-suspended in RPMI 1640 medium without serum and without antibiotics at the rate of 5 million cells/200 μl the same day of implantation of the mice. The cells were implanted subcutaneously in the backs of nude mice at the rate of 200 μl per implantation. A week to 10 days after the implantation of the cells, the tumours developed forming nodules of approximately 60 to 300 mm^3. From this moment, the treatments were initiated according to three protocols: a pilot protocol which was performed in order to determine the effectiveness of the treatments in vivo and carried out on two mice per experimental condition receiving 4 implantations (namely 8 tumours/experimental condition) and two experimental protocols elaborated following the results obtained with the pilot protocol on 10 or 5 mice per experimental condition and receiving 1 or 2 implantations (namely 10 tumours/experimental condition).
# Pilot Protocol. In this protocol, 6 mice were separated into three groups: a first group receiving injections of sterile water (control), a second group receiving injections of anti-PTHrP (1-34) antibody (Bachem, dissolved in sterile water) and a third group receiving injections of antagonist (Asn10, Leu11, D-Trp12)PTHrP(7-34) amide (Bachem, dissolved in sterile water). All injections were performed 2 times per week intra-peritoneally (50 μg/mouse of antibody or 20 μg/mouse of antagonist in 200 μl) and in intra-tumoural terms (25 μg/mouse of antibody or 10 μg/mouse of antagonist in […]). […] The volume of the tumours (length×width×depth×0.5236) was manually measured in a blind manner with callipers on days 0, 4, 7, 12, 14, 18, 23 and 25 after the first injection of the compounds under light gas anaesthesia with isoflurane. […]
# (§6) For the experiments in vivo in the nude mouse, the results of tumour growths were expressed as a percentage of the size at day 0 of the treatments. The results are expressed as a mean +/−ESM. […]
# [2] = test system: 786-0 cells implanted subcutaneously; assay: First experimental protocol: subcutaneous 786-0 tumours in nude mouse, daily RPTH1 antagonist; assay type: in vivo
# Experimental: as §5
# First Experimental Protocol. […] Consequently, in this protocol, on the one hand the numbers in each group were increased (10 mice with a tumour/experimental group) and on the other hand daily injections either of water (control) or of the RPTH1 antagonist (dissolved in sterile water) were performed. As for the pilot protocol, all the injections were performed intraperitoneally (200 μl water or 20 μg/mouse of antagonist in 200 μl) and intratumourally (100 μl of water or 10 μg/mouse of antagonist in 100 μl). For this series, the size of the tumours was measured in a blind way twice a week under light gas anaesthesia with isoflurane. At the end of the experimental period, the mice were anaesthetised with pentobarbital. Approximately 0.5 ml of blood was then recovered rapidly through intracardiac puncture of each mouse for the dosage of electrolytes and circulating PTHrP. The tumours were dissected and fixed in formol for subsequent histo-pathological studies (necrotic aspect) and immunohistochemical studies (factor VIII, PTHrP, RPTH1, mitotic index and apoptotic index).
# Proliferative and Apoptotic Index. The proliferation index was determined by coloration of tumour section with a monoclonal mouse antibody anti-Ki67 human, Dako, Trappes, France) using standard methods. The detection kit of apoptotic cells based upon the TUNEL method (Roche Diagnostics) was used to measure the apoptotic index on the sections. The total cells and those coloured in 15 fields (0.25 mm^2 each) of the highest cell coloration were counted in order to determine the two indexes which are expressed as a percentage of coloured cells in relation to total cells.
# Factor VIII and Microvascular Density. The tumour sections were coloured for the endothelial cells with a rabbit polyclonal antibody anti-human […], (Dako) using standard methods. The density of the micro-vessels was determined by counting the intersection points between vessels and the total number of vessels of 4 to 5 fields (0.25 mm^2 each) showing the highest vascular density.
# as §6
# tumour cells 786-0 [3] = assay: Analysis of cell death/apoptosis (detachment, OA/EB staining, DNA laddering); assay type: cell-based, human; details: 48 hrs
# Experimental: The cells were treated under control conditions or with either an anti-PTHrP N-terminal antibody at 1.5 μg/ml or a RPTH1 antagonist at 1 μM for 48 hrs. The orange acridine (OA) and the ethidium bromide (EB) were dissolved in a PBS buffer and added at 2 μg/ml in the culture medium. The cells were observed and photographed under fluorescence microscopy, either for the FITC (OA) or for the TRITC (EB). The fragmentation of the internucleosomal DNA was detected by a “DNA laddering” test. The cells were re-suspended in 300 μl of lysis buffer (25 mM EDTA, 1% SDS, 1 mg/ml proteinase K, pH 8) and incubated overnight at 50° C. DNA was extracted by phenol/chloroform, precipitated with ethanol and analysed by electrophoresis on agarose gel.
# tumour cells UOK-128 = assay: Cell proliferation of UOK-128 tumour cells (cell count and BrdU incorporation); assay type: cell-based, human; details: different concentrations, medium without serum, 48 hrs
# Experimental: as §1, §2, §3, §4
# tumour cells 786-0 [4] = assay: Cell proliferation of 786-0 tumour cells (cell count and BrdU incorporation); assay type: cell-based, human; details: antagonist at different concentrations, medium without serum, 48 hrs
# Experimental: as §1, §2, §3, §4
# [5] = daily antagonist, treated versus control group
substance,measurement,setting,value
"(Asn10, Leu11, D-Trp12)PTHrP(7-34) amide (human, rat) [RPTH1 antagonist]",effect of antagonist on cell proliferation,tumour cells UOK-126,inhibit very strongly
same,growth of implanted tumours,[1],blocks the growth
same,growth of implanted tumours,[1]; listed as antagonist,considerably slowed-down growth; also recorded: greatly slow down tumour growth
same,first day of significant tumour growth in comparison to day 0,"[1]; twice weekly treatment, control significant from day 7",12 days
same,apoptotic index (TUNEL) of tumours,[2]; [5],increased twofold
same,histopathological analysis of tumours,[2]; [5],No polymorphic difference
same,number of intersection points of the vessels and total number of vessels per surface area,[2]; [5],significantly increased
same,proliferation index (Ki67) of tumours,[2]; [5],not different
same,growth of implanted tumours,"[2]; daily i.p. 20 μg/mouse and intratumoural 10 μg/mouse, 17 days, versus control",totally inhibited; also recorded: completely blocks the tumour growth
same,number of cells marked by EB (cell death),"tumour cells 786-0 [3]; 1 μM, compared with non-treated cells",clearly increases
same,cell adherence to the culture support,"tumour cells 786-0 [3]; 10^−6 M, RPMI 1640 without serum",detaching the cells from the culture support
same,effect of antagonist on cell proliferation,tumour cells UOK-128,strongly inhibit
same,inhibition of cell proliferation,tumour cells 786-0 [4],70%

# Reference: US7727526B2, “Use of PTHrP antagonists for treating renal cell carcinoma” (Universite Louis Pasteur, priority 2002, dated 2010)
